According to US20110251253A1, “SOLID FORMS OF (R)-1-(2,2-DIFLUOROBENZO[D][1,3]DIOXOL-5-YL)-N-(1-(2,3-DIHYDROXYPROPYL)-6-FLUORO-2-(1-HYDROXY-2-METHYLPROPAN-2-YL)-1H-INDOL-5-YL) CYCLOPROPANECARBOXAMIDE” (VERTEX PHARMACEUTICALS INCORPORATED, priority 2010, published 2011):

Test: Solubility of Compound 1 in solvents
Type: physicochemical

Structure (SMILES): CC(C)(CO)c1cc2cc(NC(=O)C3(c4ccc5c(c4)OC(F)(F)O5)CC3)c(F)cc2n1C[C@@H](O)CO [Compound 1, (R)-1-(2,2-difluorobenzo[d][1,3]dioxol-5-yl)-N-(1-(2,3-dihydroxypropyl)-6-fluoro-2-(1-hydroxy-2-methylpropan-2-yl)-1H-indol-5-yl)cyclopropanecarboxamide]
- solubility (acetonitrile, methanol, ethanol, isopropyl alcohol, acetone, organic solvent or mixture): > 20 mg/mL
- solubility (organic solvent or mixture, first solvent, e.g. ethyl acetate, ethanol, isopropyl alcohol, or acetone): > 20 mg/mL
- solubility (second solvent, for example heptane or water): < 1 mg/mL
